In US5041567A, “Antibacterial monic acid derivatives” (Beecham Group plc, priority 1982, dated 1991):
Values after ≈ are worked out from the molar mass of the structure shown. Read-outs that look alike come from different tables or passages of the source.

Legend:
M. suipneumoniae NB12 = test: MIC against mycoplasma in vitro; type: cell-based; conditions: Mesomycoplasma hyopneumoniae
M. suipneumoniae HK(2) = test: MIC against mycoplasma in vitro; type: cell-based; conditions: Mesomycoplasma hyopneumoniae, 144 h
M. suipneumoniae Str. 11 = test: MIC against mycoplasma in vitro; type: cell-based; conditions: Mesomycoplasma hyopneumoniae
M. suipneumoniae MS 16 = test: MIC against mycoplasma in vitro; type: cell-based; conditions: Mesomycoplasma hyopneumoniae, MS16, 144 h
M. suipneumoniae LABER = test: MIC against mycoplasma in vitro; type: cell-based; conditions: Mesomycoplasma hyopneumoniae, 144 h
M. suipneumoniae TAM 6N = test: MIC against mycoplasma in vitro; type: cell-based; conditions: Mesomycoplasma hyopneumoniae, TAM6N, 144 h
[1] = test system: M. suipneumoniae ATCC 25095; test: MIC against mycoplasma in vitro; type: cell-based; conditions: Mesomycoplasma hyopneumoniae, ATCC25095, 144 h
M. hyorhinis ATCC 23234 = test: MIC against mycoplasma in vitro; type: cell-based; conditions: Mesomycoplasma hyorhinis, ATCC23234, 144 h
M. hyorhinis ATCC 25021 = test: MIC against mycoplasma in vitro; type: cell-based; conditions: Mesomycoplasma hyorhinis, ATCC25021, 144 h
[2] = test system: M. bovigenitalium ATCC 14173; test: MIC against mycoplasma in vitro; type: cell-based; conditions: 144 h
E. coli NCTC 10418 = test: MIC against human bacteria in vitro; type: cell-based; conditions: Escherichia coli, NCTC10418; E. coli NCTC 10418; agar with 5% chocolated horse blood, 18 hours, 37° C.; read-out: MIC
E. coli ESS = test: MIC against human bacteria in vitro; type: cell-based; conditions: Escherichia coli; E. coli ESS; 5% chocolated horse blood agar, 18 hours; read-out: MIC
K. aerogenes A = test: MIC against human bacteria in vitro; type: cell-based; conditions: Klebsiella aerogenes; K. aerogenes A; 5% chocolated horse blood agar, 18 hours; read-out: MIC
[3] = test system: Ps. aeruginosa NCTC 10662; test: MIC against human bacteria in vitro; type: cell-based; conditions: Pseudomonas aeruginosa, NCTC10662; Ps. aeruginosa NCTC 10662; 5% chocolated horse blood agar, 18 hours; read-out: MIC
[4] = test system: Haemophilus influenzae Wy21; test: MIC against human bacteria in vitro; type: cell-based; conditions: Haemophilus influenzae Wy21; 5% chocolated horse blood agar, 18 hours; read-out: MIC
[5] = test system: Neisseria catarrhalis 1502; test: MIC against human bacteria in vitro; type: cell-based; conditions: Neisseria catarrhalis 1502; 5% chocolated horse blood agar, 18 hours; read-out: MIC
Bacillus subtilis 6633 = test: MIC against human bacteria in vitro; type: cell-based; conditions: Bacillus subtilis 6633; 5% chocolated horse blood agar, 18 hours; read-out: MIC
[6] = test system: Corynebacterium xerosis 9755; test: MIC against human bacteria in vitro; type: cell-based; conditions: Corynebacterium xerosis 9755; 5% chocolated horse blood agar, 18 hours; read-out: MIC
Sarcina lutea 8340 = test: MIC against human bacteria in vitro; type: cell-based; conditions: Micrococcus luteus; Sarcina lutea 8340; 5% chocolated horse blood agar, 18 hours; read-out: MIC
Staph. aureus Russell = test: MIC against human bacteria in vitro; type: cell-based; conditions: Staphylococcus aureus; Staph. aureus Russell; 5% chocolated horse blood agar, 18 hours; read-out: MIC
Staph. aureus W2827 = test: MIC against human bacteria in vitro; type: cell-based; conditions: Staphylococcus aureus; Staph. aureus W2827; 5% chocolated horse blood agar, 18 hours; read-out: MIC
Strep. faecalis I = test: MIC against human bacteria in vitro; type: cell-based; conditions: Enterococcus faecalis; Strep. faecalis I; 5% chocolated horse blood agar, 18 hours; read-out: MIC
[7] = test system: Strep. pyogenes R80/421-A; test: MIC against human bacteria in vitro; type: cell-based; conditions: Streptococcus pyogenes; Strep. pyogenes R80/421-A; 5% chocolated horse blood agar, 18 hours; read-out: MIC
Strep. agalactiae 2788-B = test: MIC against human bacteria in vitro; type: cell-based; conditions: Streptococcus agalactiae; Strep. agalactiae 2788-B; 5% chocolated horse blood agar, 18 hours; read-out: MIC
Strep. pneumoniae CN33 = test: MIC against human bacteria in vitro; type: cell-based; conditions: Streptococcus pneumoniae; Strep. pneumoniae CN33; 5% chocolated horse blood agar, 18 hours; read-out: MIC
S. dublin S7 = test: MIC against veterinary bacteria in vitro; conditions: Salmonella enterica, S7, 18 h
Experimental: (§1) The activity of the compounds of the Examples against various veterinarily important bacteria, was assayed in vitro using two-fold serial dilutions in Diagnostic Sensitivity Test Agar inoculated with 10^4 organisms.

S. typhimurium S18 = test: MIC against veterinary bacteria in vitro; conditions: Salmonella enterica, TYPHIMURIUM, 18 h
Experimental: as §1

Past. multocida PA2 = test: MIC against veterinary bacteria in vitro; conditions: Pasteurella multocida, PA2, 18 h
Experimental: as §1

[8] = test system: Erysipelothrix rhusiopathiae NCTC 8163; test: MIC against veterinary bacteria in vitro; conditions: Erysipelothrix rhusiopathiae, NCTC8163, 18 h
Experimental: as §1

[9] = test system: Corynebacterium pyogenes CY1; test: MIC against veterinary bacteria in vitro; conditions: CY1, 18 h
Experimental: as §1

[10] = test system: Staph. aureus 152 (pen. sens); test: MIC against veterinary bacteria in vitro; conditions: Staphylococcus aureus, 18 h
Experimental: as §1

Staph. aureus Oxford = test: MIC against veterinary bacteria in vitro; conditions: Staphylococcus aureus, 18 h
Experimental: as §1

Strep. uberis SPU1 = test: MIC against veterinary bacteria in vitro; conditions: Streptococcus uberis, SPU1, 18 h
Experimental: as §1

Strep. dysgalactiae SPD1 = test: MIC against veterinary bacteria in vitro; conditions: Streptococcus dysgalactiae, SPD1, 18 h
Experimental: as §1

[11] = 144 h, M. suipneumoniae NB12, Friis broth, 0.9% agarose, 6 days, 37° C., read-out: MIC
[12] = M. suipneumoniae HK(2), 6 days, 37° C., read-out: MIC
[13] = 144 h, M. suipneumoniae Str. 11, 6 days, 37° C., read-out: MIC
[14] = M. suipneumoniae LABER, 6 days, 37° C., read-out: MIC
[15] = M. suipneumoniae TAM 6N, 6 days, 37° C., read-out: MIC
[16] = M. suipneumoniae ATCC 25095, 6 days, 37° C., read-out: MIC

Row | SMILES | MIC (E. coli NCTC 10418) [µg/mL] | MIC (E. coli ESS) [µg/mL] | MIC (K. aerogenes A) [µg/mL] | MIC [3] [µg/mL] | MIC [4] [µg/mL] | MIC [5] [µg/mL] | MIC (Bacillus subtilis 6633) [µg/mL] | MIC [6] [µg/mL] | MIC (Sarcina lutea 8340) [µg/mL] | MIC (Staph. aureus Russell) [µg/mL] | MIC (Staph. aureus W2827) [µg/mL] | MIC (Strep. faecalis I) [µg/mL] | MIC [7] [µg/mL] | MIC (Strep. agalactiae 2788-B) [µg/mL] | MIC (Strep. pneumoniae CN33) [µg/mL] | MIC (S. dublin S7) [µg/mL] | MIC (S. typhimurium S18) [µg/mL] | MIC (Past. multocida PA2) [µg/mL] | MIC [8] [µg/mL] | MIC [9] [µg/mL] | further results
1 | C/C(=C\c1ncc(C)o1)C[C@@H]1OC[C@H](C[C@@H]2O[C@H]2[C@@H](C)[C@H](C)O)[C@@H](O)[C@H]1O [Example 14, 5-Methyl-2-(1-normon-2-yl) oxazole A] | > 128 | 32 (≈ 83.9 µM) | > 128 | > 128 | 2 (≈ 5.24 µM) | 16 (≈ 41.9 µM) | 4 (≈ 10.5 µM) | > 128 | > 128 | 16 (≈ 41.9 µM) | 16 (≈ 41.9 µM) | > 128 | 32 (≈ 83.9 µM) | 32 (≈ 83.9 µM) | 32 (≈ 83.9 µM) | > 80 | > 80 | 10 (≈ 26.2 µM) | > 80 | > 80 | MIC (M. suipneumoniae NB12; NB12, 144 h): 5 µg/mL (≈ 13.1 µM); MIC (M. suipneumoniae HK(2)): 5 µg/mL (≈ 13.1 µM); MIC (M. suipneumoniae Str. 11; STR.11, 144 h): 2.5 µg/mL (≈ 6.55 µM); MIC (M. suipneumoniae MS 16): 2.5 µg/mL (≈ 6.55 µM); MIC (M. suipneumoniae LABER): 2.5 µg/mL (≈ 6.55 µM); MIC (M. suipneumoniae TAM 6N): 5 µg/mL (≈ 13.1 µM); MIC [1]: 2.5 µg/mL (≈ 6.55 µM); MIC (M. hyorhinis ATCC 23234): 2.5 µg/mL (≈ 6.55 µM); MIC (M. hyorhinis ATCC 25021): 2.5 µg/mL (≈ 6.55 µM); MIC [2]: 0.1 µg/mL (≈ 0.262 µM); MIC [10]: 10 µg/mL (≈ 26.2 µM); MIC (Staph. aureus Oxford): 10 µg/mL (≈ 26.2 µM); MIC (Strep. uberis SPU1): 2.5 µg/mL (≈ 6.55 µM); MIC (Strep. dysgalactiae SPD1): 2.5 µg/mL (≈ 6.55 µM)
2 | C/C(=C\c1ncc(-c2ccc(C=O)cc2)o1)C[C@@H]1OC[C@H](C[C@@H]2O[C@H]2[C@@H](C)[C@H](C)O)[C@@H](O)[C@H]1O [Example 15, 5-p-Formylphenyl-2-(1-normon-2-yl) oxazole A] | > 128 | 16 (≈ 33.9 µM) | > 128 | > 128 | 4 (≈ 8.48 µM) | 4 (≈ 8.48 µM) | 2 (≈ 4.24 µM) | > 128 | > 128 | 8 (≈ 17 µM) | 8 (≈ 17 µM) | > 128 | 8 (≈ 17 µM) | 8 (≈ 17 µM) | 8 (≈ 17 µM) | > 80 | > 80 | < 0.039 | > 80 | > 80 | MIC (M. suipneumoniae NB12; [11]): 0.5 µg/mL (≈ 1.06 µM); MIC (M. suipneumoniae HK(2); [12]): 0.5 µg/mL (≈ 1.06 µM); MIC (M. suipneumoniae Str. 11; [13]): 0.5 µg/mL (≈ 1.06 µM); MIC (M. suipneumoniae MS 16): 0.25 µg/mL (≈ 0.53 µM); MIC (M. suipneumoniae LABER; [14]): 0.5 µg/mL (≈ 1.06 µM); MIC (M. suipneumoniae TAM 6N; [15]): 0.5 µg/mL (≈ 1.06 µM); MIC [1, 16]: 0.5 µg/mL (≈ 1.06 µM); MIC (M. hyorhinis ATCC 23234): 0.25 µg/mL (≈ 0.53 µM); MIC (M. hyorhinis ATCC 25021): 0.25 µg/mL (≈ 0.53 µM); MIC [2]: 0.05 µg/mL (≈ 0.106 µM); MIC [10]: 0.625 µg/mL (≈ 1.33 µM); MIC (Staph. aureus Oxford): 1.25 µg/mL (≈ 2.65 µM); MIC (Strep. uberis SPU1): 0.625 µg/mL (≈ 1.33 µM); MIC (Strep. dysgalactiae SPD1): 1.25 µg/mL (≈ 2.65 µM)
3 | COC(=O)c1ccc(-c2cnc(/C=C(\C)C[C@@H]3OC[C@H](C[C@@H]4O[C@H]4[C@@H](C)[C@H](C)O)[C@@H](O)[C@H]3O)o2)cc1 [Example 16, 5-p-Methoxycarbonylphenyl-2-(1-normon-2-yl) oxazole A] | > 64 | 32 (≈ 63.8 µM) | > 64 | > 64 | 2 (≈ 3.99 µM) | 8 (≈ 15.9 µM) | 1 (≈ 1.99 µM) | > 64 | > 64 | 4 (≈ 7.97 µM) | 4 (≈ 7.97 µM) | > 64 | 4 (≈ 7.97 µM) | 4 (≈ 7.97 µM) | 4 (≈ 7.97 µM) | > 80 | > 80 | < 0.039 | 80 (≈ 159 µM) | > 80 | MIC (M. suipneumoniae NB12; [11]): 0.5 µg/mL (≈ 0.997 µM); MIC (M. suipneumoniae HK(2); [12]): 0.5 µg/mL (≈ 0.997 µM); MIC (M. suipneumoniae Str. 11; [13]): 0.25 µg/mL (≈ 0.498 µM); MIC (M. suipneumoniae MS 16; M. suipneumoniae MS 16, 6 days, 37° C., read-out: MIC): 0.25 µg/mL (≈ 0.498 µM); MIC (M. suipneumoniae LABER; [14]): 0.25 µg/mL (≈ 0.498 µM); MIC (M. suipneumoniae TAM 6N; [15]): 0.5 µg/mL (≈ 0.997 µM); MIC [1, 16]: 0.25 µg/mL (≈ 0.498 µM); MIC (M. hyorhinis ATCC 23234; M. hyorhinis ATCC 23234, 6 days, 37° C., read-out: MIC): 0.25 µg/mL (≈ 0.498 µM); MIC (M. hyorhinis ATCC 25021; M. hyorhinis ATCC 25021, 6 days, 37° C., read-out: MIC): 0.25 µg/mL (≈ 0.498 µM); MIC ([2]; M. bovigenitalium ATCC 14173, 6 days, 37° C., read-out: MIC): 0.1 µg/mL (≈ 0.199 µM); MIC [10]: 1.25 µg/mL (≈ 2.49 µM); MIC (Staph. aureus Oxford): 1.25 µg/mL (≈ 2.49 µM); MIC (Strep. uberis SPU1): 0.312 µg/mL (≈ 0.622 µM); MIC (Strep. dysgalactiae SPD1): 1.25 µg/mL (≈ 2.49 µM)
